Experimental data published in patent US8895623B2 (priority 2011, dated 2014).
Like-named read-outs stand apart in the source and are kept apart here.

What was measured:
thrombocytes [1] = test: conjugation in thrombocytes in presence of biogenic amine transport inhibitors
[2] = oral bioavailability in humans; type: in vivo
Description: The principal route of metabolic clearance of 3-[(1R,2R)-3-(dimethylamino)-1-ethyl-2-methylpropyl]phenol in most species, including humans, is glucuronidation, and this route was therefore considered to be very likely to be dominant for 3-[(1S,2S)-3-(dimethylamino)-1-ethyl-2-methylpropyl]phenol as well.

male Sprague Dawley rats = test: low intensity tail-flick test after intrathecal administration; type: in vivo, rat; conditions: intrathecal (i.t.) 3.15 μg/animal, 20 min p. appl., mean±s.e.m., n=10
Procedure: Antinociceptive effects of 3-[(1S,2S)-3-(dimethylamino)-1-ethyl-2-methylpropyl]-phenol were evaluated in the low intensity tail-flick test after local drug application into the spinal cord of rats.
160 male Sprague Dawley rats (200 to 260 g body weight) from a commercial breeder (Janvier, Le Genest St Isle, France) were housed under standardized conditions: light/dark rhythm (06.00-18.00 h light, 18.00-06.00 h dark); room temperature 20-24° C.; relative air humidity 35-70%; 15 air changes per hour, air movement <0.2 m/sec. The animals were given water and feedstuff designed for rats/mice/hamsters from Nohrlin (Bad Salzuflen, FRG) ad libitum. They were kept in groups of six in Makrolon cages type 4. There were at least 5 days between the day of delivery and the day of testing.
The experiments were performed using a Tail-flick device from Rhema-Labortechnik (Hofheim/Ts., FRG). Before and after drug application, a radiant heat beam was focused onto the dorsal surface of the rat's tail about 2 to 4 cm apart from the root. […] The latency from switching on the lamp to tail withdrawal was measured. […]
The individual latencies were calculated as the percentage of the Maximum Possible Effect (% MPE) according to the following formula: % MPE=(latency−VTM)/(30sec−VTM)*100% VTM: mean pre-test value, 30 sec: cut off value.
Data were expressed as mean±s.e.m. of the respective animal group.

[3] = loss of compound on incubation in heparinised whole human blood; type: in vitro ADME; conditions: for loss of added compound: whole human blood
Description: The remaining possibility was that the high clearance was due to a stereo-selective biochemical process occurring in blood itself. If true, then it would be expected that 3-[(1S,2S)-3-(dimethylamino)-1-ethyl-2-methylpropyl]phenol, but not 3-[(1R,2R)-3-(dimethylamino)-1-ethyl-2-methylpropyl]phenol, would be metabolised in a time-, concentration-, and temperature-dependent manner by whole human blood.
To test the hypothesis, blood was withdrawn from healthy volunteers, heparinised (final heparin concentration, 15 U/ml), and spiked with 1 μM 3-[(1S,2S)-3-(dimethylamino)-1-ethyl-2-methylpropyl]phenol or 3-[(1R,2R)-3-(dimethylamino)-1-ethyl-2-methylpropyl]phenol. It was mixed on a rotary mixer at 37° C. in closed test-tubes. The rate of loss of the added compounds was determined by taking aliquots at regular intervals, centrifuging at 5000 g for 5 minutes, and analysing the supernatant.
Supernatants were alkalinized by addition of aqueous 25% ammonia (50 μl/ml plasma), spiked with an internal standard, and extracted twice with tertiary butyl methyl ether (2 ml per ml plasma). The ether layers were combined and dried in a stream of nitrogen before being reconstituted in 150 μl chromatography buffer (see below).
All assay supernatants were analysed by reversed-phase HPLC on a Inertsil 5 ODS 2 column (250×4.6 mm). The HPLC system consisted of equipment from Dionex or Gynkotek. The auto-sampler was a GINA 50T unit (Gynkotek); the pump system was type P580A LPG (Gynkotek); the column was thermostatted at 30° C. using a SHT 585 unit (Gynkotek). Effluents were generally monitored for fluorescence emission at 300 nm after excitation at 215 nm using a RF 2000 detector (Dionex); the wavelengths for excitation and emission were chosen to be optimal for 3-[(1S,2S)-3-(dimethylamino)-1-ethyl-2-methylpropyl]phenol or 3-[(1R,2R)-3-(dimethylamino)-1-ethyl-2-methylpropyl]-phenol. Chromatograms were evaluated using Chromeleon software version 6.11 (Dionex).
Generally, the samples were eluted using an isocratic solvent mixture. Sodium pentane-sulphonate was dissolved at 1.92 g/l (10 mM)=PSS; perchloric acid (PA) was 60% w/v. A mixture containing 900 ml PSS, 210 ml methanol, 80 ml tetrahydrofuran, and 0.1 ml PA was made, allowed to stand overnight, and degassed prior to passage over the column. The effluent was passed first through the UV detector, and then into the fluorescence detector.

thrombocytes [4] = test: incubation in thrombocyte-enriched plasma (sulphation by thrombocytes); type: in vitro ADME, human
Procedure: Thrombocyte (platelet-)enriched plasma can be prepared by centrifuging blood at 400 g for 10 minutes as this precipitates larger cells (erythrocytes, leukocytes).

[5] = rate of microsomal oxidation in vitro; type: in vitro ADME; conditions: hepatic microsomes
Description: The probability of different routes of metabolic clearance in vivo can be investigated by estimating the rates of the underlying oxidation or conjugation reactions in vitro using sub-cellular fractions such as hepatic microsomes. Because the rate of microsomal oxidation of 3-[(1S,2S)-3-(dimethylamino)-1-ethyl-2-methylpropyl]phenol could be shown to be very low, it was considered that oxidative metabolism was unlikely to be a significant metabolic clearance route for this molecule.

[6] = pharmacokinetics after intravenous administration in humans; type: in vivo; conditions: for initial plasma concentrations: after intravenous administrations of equal doses, comparison of enantiomers; for elimination halftime: in humans, intravenous administration
Procedure: On examination of the pharmacokinetics of the two compounds after intravenous administration, it became clear that the rate of elimination of 3-[(1S,2S)-3-(dimethylamino)-1-ethyl-2-methylpropyl]phenol was much higher than that of 3-[(1R,2R)-3-(dimethylamino)-1-ethyl-2-methylpropyl]phenol, and higher even than could be explained on clearance of the total hepatic blood flow. […] In fact, the elimination halftime of 3-[(1S,2S)-3-(dimethylamino)-1-ethyl-2-methylpropyl]phenol was ca. 0.75 h.

stability to plasma = type: in vitro ADME
Description: Blood consists of plasma, plasma enzymes, and various blood cell types (erythrocytes, leukocytes, thrombocytes etc). 3-[(1S,2S)-3-(dimethylamino)-1-ethyl-2-methylpropyl]phenol was expected, and proven, to be stable to plasma. Of the blood cell types, thrombocytes (platelets) were expected to have the highest relevant enzymatic activity in SULT1A3, a sulphotransferase.

[7] = in humans, known value; cited from earlier work

For `CC[C@H](c1cccc(OS(=O)(=O)O)c1)[C@H](C)CN(C)C` [3-[(1S,2S)-3-(dimethylamino)-1-ethyl-2-methylpropyl]phenol-sulphate], the “accumulation in pelleted thrombocytes” value (thrombocytes [1]; under any condition) was “no accumulation”.

In the case of `CC[C@H](c1cccc(O)c1)[C@H](C)CN(C)C` [3-[(1S,2S)-3-(dimethylamino)-1-ethyl-2-methylpropyl]phenol], the oral bioavailability [2] is reported as “effectively zero”, the “oral bioavailability or intravenous bioavailability” value [2] is reported as “no relevant oral bioavailability or intravenous bioavailability” and the maximum antinociceptive effect (male Sprague Dawley rats) is reported as 59.71±2.94 % MPE. The “rate of conjugation in presence of transport inhibitors” value (thrombocytes [1]; cocaine 10 μM, nomifensin 10 μM, amphetamine 100 μM, fluoxetine 10 μM, desipramine 100 μM) was “influenced neither”, the “concentration above which clearance process is saturable” value ([3]; whole blood, net losses sub-linear) was “above 2 μM” and the “loss of added compound” value ([3]; 1 μM, 37° C., over one hour) was 35%. For the same molecule, the “loss of added compound” value ([3]; 6° C.) was “no loss”, the “loss of added compound” value ([3]; room temperature (24° C.)) was 7% and the Km (thrombocytes [4]; estimated from concentration dependency of the reaction rate, read-out: Km of the process) was 3.5 µM. For the same molecule, the “loss on incubation in thrombocyte-enriched plasma” value (thrombocytes [4]; thrombocyte-enriched plasma from a given volume of blood, compared with whole blood) was “equivalent to that observed on incubation in the original volume of whole blood”, the “rate of microsomal oxidation” value [5] was “very low” and the initial plasma concentrations [6] was “essentially identical”. The “clearance relative to hepatic blood flow” value ([6]; humans, explains short elimination halftime) was 5 fold the hepatic blood flow, the elimination halftime [6] was “ca. 0.75 h” and the stability to plasma (stability to plasma) was “stable”.

In the case of `CC[C@H](c1ccc[14c](O)c1)[C@H](C)CN(C)C` [14C-3-[(1S,2S)-3-(dimethylamino)-1-ethyl-2-methylpropyl]phenol], the “reaction products after incubation” value (thrombocytes [4]; whole blood or thrombocyte-enriched plasma, eluted identically to synthetic sulphate on HPLC) is reported as “only a single reaction product”.

In the case of `CC[C@@H](c1cccc(O)c1)[C@@H](C)CN(C)C` [(-)-(1R,2R)-3-(3-dimethylamino-1-ethyl-2-methyl-propyl)-phenol, reference compound], the oral bioavailability [7] is listed as “ca. 33%”, the “loss of added compound” value ([3]; 1 μM, 37° C., over one hour) is listed as “No loss” and the “rate of microsomal oxidation” value [5] is listed as “similarly low”. For the same molecule, the initial plasma concentrations [6] was “essentially identical” and the elimination halftime [6] was “ca. 3.2 h”.
